Ten compounds from ChEMBL document CHEMBL1201862, “PubChem BioAssay data set” (2004) can be followed below.

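Each compound was tested at five concentrations against cells in 96-well plates for 48 hours. Here, GI50 denotes the concentration required for 50% inhibition of growth.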 Active and inactive are the calls of the source. Cut-off read from the data, not from the text of the source: active = GI50 up to about 1.1 µM and inactive = higher.

Test systems include 786-0; BT-549; HOP-92; Hs-578T; LOX IMVI; M14; Malme-3M; NCI-H522; OVCAR-3; OVCAR-4; PC-3; SF-268; SF-295; SK-MEL-5; SN12C; SNB-19; SR; T47D; TK-10; UO-31.
Assay in all cases: growth of human tumour cells (NCI), 48 h

With `O=C(NNC(=O)c1ccccc1SSc1ccccc1C(=O)NNC(=O)c1ccccc1S)c1ccccc1S`, the GI50 in the assay on 786-0 was 11.4 µM (inactive); in the assay with BT-549 it was 13.5 µM (inactive); in the assay with HOP-92, 39.2 µM (inactive); in the assay on Hs-578T, 0.404 µM (active); with LOX IMVI, 11.9 µM (inactive); in the assay with M14, 17.7 µM (inactive). The GI50 in the assay on Malme-3M was 21.6 µM (inactive); in the assay with NCI-H522, 0.49 µM (active); in the assay with OVCAR-3 it was 31 µM (inactive); in the assay on OVCAR-4 it was 31.1 µM (inactive); with PC-3, 24.6 µM (inactive); in the assay with SF-268, 4.24 µM (inactive). The GI50 is 10.6 µM (inactive) in the assay with SF-295; 39.7 µM (inactive) with SK-MEL-5; 18.5 µM (inactive) in the assay on SN12C; 26.2 µM (inactive) in the assay with SNB-19; 5.35 µM (inactive) in the assay with SR; 9.16 µM (inactive) with T47D. Also, the figures for the GI50 in the assay on TK-10 and with UO-31 were 51.8 µM (inactive) and 9.95 µM (inactive), respectively.

With `CC(O)CCC(=O)c1ccoc1` (stereo not given), the GI50 was > 10000 µM (inactive) with 786-0; 2920 µM (inactive) in the assay with BT-549; 2490 µM (inactive) with HOP-92; 5120 µM (inactive) in the assay on Hs-578T; 6030 µM (inactive) in the assay with LOX IMVI; > 9420 µM (inactive) in the assay with M14. For the same compound, the GI50 in the assay with Malme-3M was 6820 µM (inactive); in the assay on NCI-H522, 3680 µM (inactive); in the assay on OVCAR-3, 3610 µM (inactive); with OVCAR-4 it was 5110 µM (inactive); in the assay on PC-3, 6120 µM (inactive); in the assay on SF-268 it was 7000 µM (inactive). For the same compound, the GI50 in the assay on SF-295 was 7130 µM (inactive); in the assay with SK-MEL-5 it was 4560 µM (inactive); with SN12C it was 7180 µM (inactive); in the assay on SNB-19 it was 7000 µM (inactive); in the assay on SR, > 9290 µM (inactive); in the assay with T47D, 5010 µM (inactive). The figures for the GI50 in the assay on TK-10 and in the assay on UO-31 were 6980 µM (inactive) and 3390 µM (inactive), respectively.

For the compound `C=C(C=O)c1c2c(nc3ccccc13)C(=O)c1ccccc1C2=O`, the GI50 in the assay on 786-0 was 0.826 µM (active); in the assay with BT-549, 1.82 µM (inactive); with HOP-92 it was 1.67 µM (inactive); with Hs-578T, 0.617 µM (active); in the assay on LOX IMVI it was 0.316 µM (active); in the assay on M14, 0.562 µM (active). For the same compound, the GI50 in the assay with Malme-3M is 1.42 µM (inactive); in the assay with NCI-H522, 0.366 µM (active); with OVCAR-3 it was 0.398 µM (active); in the assay on OVCAR-4, 1.77 µM (inactive); with PC-3, 1.29 µM (inactive); in the assay with SF-268, 0.668 µM (active). In addition, the GI50 was 1.29 µM (inactive) in the assay with SF-295; 0.162 µM (active) with SK-MEL-5; 0.504 µM (active) in the assay with SN12C; 1.64 µM (inactive) in the assay on SNB-19; 0.24 µM (active) in the assay with SR; 0.646 µM (active) in the assay on T47D. The GI50 in the assay with TK-10 is 1.02 µM (active); in the assay on UO-31 it was 1.11 µM (active).

With `CCCC(=O)NC(C(=O)OCC)(N1CCOCC1)C(F)(F)F` (stereo not given), the GI50 in the assay on 786-0, with BT-549, in the assay on HOP-92, in the assay on Hs-578T, in the assay with LOX IMVI and in the assay on M14 was > 100 µM (inactive) throughout. Besides, the GI50 with Malme-3M, in the assay on NCI-H522, in the assay with OVCAR-3, in the assay on OVCAR-4, in the assay on PC-3 and in the assay on SF-268 was > 100 µM (inactive) throughout. The GI50 with SF-295, in the assay on SK-MEL-5, in the assay with SN12C, in the assay on SNB-19, in the assay with SR and with T47D was > 100 µM (inactive) throughout. The GI50 in the assay with TK-10 and with UO-31 was > 100 µM (inactive) in each case.

Regarding `O=c1[nH]c2cc(C(F)(F)F)ccc2nc1CBr`, the GI50 was 6.62 µM (inactive) with 786-0; 13.1 µM (inactive) in the assay on BT-549; 2.79 µM (inactive) in the assay with HOP-92; 22 µM (inactive) in the assay on Hs-578T; 1.82 µM (inactive) with LOX IMVI; 8.3 µM (inactive) with M14. Also, the GI50 with Malme-3M was 14 µM (inactive); in the assay with NCI-H522, 0.36 µM (active); in the assay on OVCAR-3, 9.77 µM (inactive); in the assay with OVCAR-4, 15.7 µM (inactive); with PC-3, 13.1 µM (inactive); with SF-268, 21.3 µM (inactive). Moreover, the GI50 was 14.9 µM (inactive) in the assay on SF-295; 9.59 µM (inactive) with SK-MEL-5; 9.31 µM (inactive) in the assay with SN12C; 15.5 µM (inactive) in the assay on SNB-19; 4.85 µM (inactive) in the assay on SR; 16 µM (inactive) in the assay with T47D. The GI50 was 13.9 µM (inactive) in the assay with TK-10 and 3.4 µM (inactive) in the assay on UO-31.

Turning to `CC1=CC[C@H](C(C)C)C(C(O)[C@@H](C)O[Si](c2ccccc2)(c2ccccc2)C(C)(C)C)C1=O` (stereo not given in full), the GI50 in the assay with 786-0 was 15 µM (inactive); in the assay on BT-549 it was 18.9 µM (inactive); in the assay with HOP-92, 20.8 µM (inactive); in the assay on Hs-578T, 28 µM (inactive); in the assay with LOX IMVI it was 21.8 µM (inactive); with M14, 15.3 µM (inactive). The GI50 in the assay on Malme-3M is 28.8 µM (inactive); with NCI-H522, 16.5 µM (inactive); in the assay on OVCAR-3 it was 17 µM (inactive); in the assay on OVCAR-4, 15.5 µM (inactive); in the assay on PC-3 it was 14 µM (inactive); with SF-268, 21.1 µM (inactive). Also, the GI50 with SF-295 is 15 µM (inactive); with SK-MEL-5, 16.2 µM (inactive); in the assay with SN12C, 17.9 µM (inactive); with SNB-19, 17.3 µM (inactive); with SR it was 14.5 µM (inactive); in the assay with T47D, 13.2 µM (inactive). Also, the GI50 was 15.7 µM (inactive) with TK-10 and 15.2 µM (inactive) in the assay with UO-31.

Turning to `COc1cc2c(c(O)c1OC)CC1CCC(=O)N1C2c1cccc2ccccc12` (stereo not given), the GI50 was 30.3 µM (inactive) in the assay on 786-0; 22.3 µM (inactive) in the assay with BT-549; 14.1 µM (inactive) with HOP-92; 19.7 µM (inactive) with Hs-578T; 23 µM (inactive) in the assay with LOX IMVI; 17.4 µM (inactive) in the assay with M14. Besides, the GI50 with Malme-3M was 21.8 µM (inactive); in the assay with NCI-H522, 20.3 µM (inactive); in the assay on OVCAR-3, 22.2 µM (inactive); in the assay on OVCAR-4, > 10 µM (inactive); in the assay with PC-3 it was 15.6 µM (inactive); with SF-268 it was 25.1 µM (inactive). In addition, the GI50 is 18.6 µM (inactive) in the assay on SF-295; 13.4 µM (inactive) with SK-MEL-5; 16.9 µM (inactive) in the assay on SN12C; 15.6 µM (inactive) in the assay on SNB-19; > 100 µM (inactive) with SR; 18.9 µM (inactive) with T47D. The GI50 is 39.4 µM (inactive) with TK-10 and 17.6 µM (inactive) in the assay with UO-31.

`C/C(=N\[N+](C)(C)C)c1ccc(C)c(C)c1`: the GI50 with 786-0 is > 10 µM (inactive); in the assay with BT-549, 58.3 µM (inactive); in the assay on HOP-92 it was > 10 µM (inactive); in the assay with Hs-578T, > 10 µM (inactive); in the assay with LOX IMVI, > 10 µM (inactive); in the assay with M14, > 10 µM (inactive). In addition, the GI50 in the assay with Malme-3M was > 10 µM (inactive); in the assay on NCI-H522, 49.1 µM (inactive); with OVCAR-3 it was 78.2 µM (inactive); with OVCAR-4 it was 88.1 µM (inactive); with PC-3 it was 36.9 µM (inactive); with SF-268 it was > 10 µM (inactive). Besides, the GI50 is 83.6 µM (inactive) in the assay on SF-295; 35.7 µM (inactive) in the assay with SK-MEL-5; 20.4 µM (inactive) in the assay with SN12C; 42.9 µM (inactive) in the assay on SNB-19; 82.6 µM (inactive) with SR; > 100 µM (inactive) in the assay with T47D. Also, the GI50 in the assay on TK-10 was 45.9 µM (inactive); in the assay on UO-31 it was 77.4 µM (inactive).

Turning to `CC(C)(C)c1cc(OCc2nnc3sc(Cc4ccccc4)nn23)c(Cl)cc1OCc1nnc2sc(Cc3ccccc3)nn12`, the GI50 in the assay on 786-0 is 17.3 µM (inactive); in the assay with BT-549 it was 21.5 µM (inactive); in the assay on HOP-92, 15.8 µM (inactive); with Hs-578T, > 100 µM (inactive); in the assay with LOX IMVI, 29.1 µM (inactive); with M14, 29 µM (inactive). In addition, the GI50 with Malme-3M is 19.5 µM (inactive); in the assay on NCI-H522 it was 37.2 µM (inactive); in the assay with OVCAR-3, 30.7 µM (inactive); with OVCAR-4, 24.8 µM (inactive); in the assay with PC-3, 30.1 µM (inactive); in the assay with SF-268, 44.2 µM (inactive). In addition, the GI50 was 23.3 µM (inactive) with SF-295; 15.3 µM (inactive) in the assay on SK-MEL-5; 44.6 µM (inactive) in the assay on SN12C; 33.5 µM (inactive) in the assay on SNB-19; 3.52 µM (inactive) in the assay with SR; 9.59 µM (inactive) in the assay with T47D. The GI50 is 30.1 µM (inactive) with TK-10 and 47.5 µM (inactive) in the assay on UO-31.

For the compound `COc1cc(NC=C2C(=O)OC(C)(C)OC2=O)c(OC)c(C)c1OC`, the GI50 in the assay with 786-0, in the assay on BT-549, in the assay with HOP-92, in the assay on Hs-578T, in the assay with LOX IMVI and with M14 was > 100 µM (inactive) each time. The GI50 with Malme-3M was > 65.2 µM (inactive); with NCI-H522 it was > 100 µM (inactive); with OVCAR-3, > 100 µM (inactive); with OVCAR-4, > 74 µM (inactive); in the assay with PC-3 it was > 100 µM (inactive); with SF-268 it was > 100 µM (inactive). Further, the GI50 with SF-295, with SK-MEL-5, in the assay on SN12C, in the assay with SNB-19, in the assay on SR and with T47D was > 100 µM (inactive) throughout. Besides, the GI50 in the assay on TK-10 and in the assay with UO-31 was > 100 µM (inactive) each time.
